Reference: ChEMBL document CHEMBL4706669, “Majonoside-R2 extracted from Vietnamese ginseng protects H9C2 cells against hypoxia/reoxygenation injury via modulating mitochondrial function and biogenesis” (2021)
The source made the active and inactive calls. The rule behind the calls is not given here.

Columns and labels:
H9c2 [1] = test: Cardioprotective activity against HR-induced injury in rat H9c2 cells assessed as increase in cell viability at 10 uM by CCK-8 assay relative to control; type: functional
H9c2 [2] = test: Protection against HR-induced mitochondrial dysfunction in rat H9c2 cells assessed as mitochondrial membrane potential by measuring TMRE intensity by fluorescence microplate reader (reference value: 98.59 +/- 0.96 %); type: functional, cell-based; details: dose 9.0 µM
H9c2 [3] = test: Protection against HR-induced mitochondrial dysfunction in rat H9c2 cells assessed as increase in cardiolipin content by fluorescence microplate reader; type: functional, cell-based
H9c2 [4] = test: Protection against HR-induced mitochondrial dysfunction in rat H9c2 cells assessed as decrease in ROS production by fluorescence microplate reader; type: functional, cell-based
H9c2 [5] = test: Cardioprotective activity against HR-induced injury in rat H9c2 cells assessed as increase in cell viability at 0.1 to 90 uM by CCK-8 assay; type: functional, cell-based; details: dose 0.1-90 µM
H9c2 [6] = test: Cardioprotective activity against HR-induced injury in rat H9c2 cells assessed as increase in cell viability at 9 uM by CCK-8 assay relative to control; type: functional
H9c2 [7] = test: Induction of mitochondrial biogenesis in rat H9c2 cells with HR-induced injury assessed as increase in NAO intensity by fluorescence microscopic analysis; type: functional, cell-based
H9c2 [8] = test: Increase in mitochondrial mass in rat H9c2 cells with HR-induced injury assessed as increase in NAO intensity by fluorescence microscopic analysis; type: functional, cell-based
[9] = Induction of mitochondrial biogenesis in rat H9c2 cells with HR-induced injury assessed as upregulation of PGC1beta mRNA expression relative to GADPH (reference value: 0.981 +/- 0.007); type: functional
H9c2 [10] = test: Induction of mitochondrial biogenesis in rat H9c2 cells with HR-induced injury assessed as effect on PGC1alpha mRNA expression; type: functional, cell-based
H9c2 [11] = test: Induction of mitochondrial biogenesis in rat H9c2 cells with HR-induced injury assessed as increase in NRF-1 mRNA expression; type: functional, cell-based
H9c2 [12] = test: Induction of mitochondrial biogenesis in rat H9c2 cells with HR-induced injury assessed as […] in NRF-2 mRNA expression; type: functional, cell-based
[13] = Induction of mitochondrial biogenesis in rat H9c2 cells with HR-induced injury assessed as upregulation of PPAR expression by immunoblotting (reference value: 0.065 +/- 0.019); type: functional
[14] = Induction of mitochondrial biogenesis in rat H9c2 cells with HR-induced injury assessed as upregulation of ATP5I expression (reference value: 0.998 +/- 0.001); type: functional
H9c2 [15] = test: Induction of mitochondrial biogenesis in rat H9c2 cells with HR-induced injury assessed as upregulation of TFAM expression; type: functional, cell-based

CS(=O)(=O)O.CS(=O)(=O)O.O=S1(=O)CCN(Cc2cc(NCC3CCOCC3)c3[nH]c(-c4ccccc4)cc3c2)CC1
Activity (H9c2 [1]): 84.37%
Activity (H9c2 [2]): Active
Activity (H9c2 [3]): Active
Activity (H9c2 [4]): Active

CC(C)(O)[C@@H]1CC[C@@](C)([C@H]2CC[C@]3(C)[C@@H]2[C@H](O)C[C@@H]2[C@@]4(C)CC[C@H](O)C(C)(C)[C@@H]4[C@@H](O[C@@H]4O[C@H](CO)[C@@H](O)[C@H](O)[C@H]4O[C@@H]4OC[C@@H](O)[C@H](O)[C@H]4O)C[C@]23C)O1 [MAJONOSIDE R2]
Activity (H9c2 [5]): Active
Activity (H9c2 [6]): 78.09%
Activity (H9c2 [2]): Active
Activity (H9c2 [3]): Active
Activity (H9c2 [4]): Active
Activity (H9c2 [7]): Active
Activity (H9c2 [8]): Active
fold change (FC) [9]: 1.113
Activity (H9c2 [10]): inactive
Activity (H9c2 [11]): Active
Activity (H9c2 [12]): Active
fold change (FC) [13]: 0.867
fold change (FC) [14]: 1.135
Activity (H9c2 [15]): Active
